Experiments:
viral polymerase = viral polymerase (Human herpesvirus 1, UniProt P04293); settings: cited from earlier work
[1] = system: Herpes simplex virus (HSV); experiment: Clinical cases of QTT-positive HSV-associated dermatitis treated with antiviral agent; type: in vivo, human
From the text: Step 100: Checking a potential disease (D) relates to a dermatosis or a non-skin disease. For example, some questions are given for the patient and the skin of the patient is checked by an experienced inspector or a medical staff to determine if a potential disease (D) had by the patent relates to a dermatosis or a non-skin disease. If the potential disease (D) relates to a dermatosis, the inspector or the medical staff will take some tissue samples from an affected part of a patient's skin, as illustrated in step 101, and the test in step 102 for testing the tissue samples from the patient's skin will continue. If the disease (D) relates to a non-skin disease, the inspector or the medical staff takes a tissue sample from a specific part, such as peripheral blood, skin, bone marrow, mucosa, saliva, cerebrospinal fluid, amniotic fluid, brain tissue, tears or skin secretions, of the patient, as illustrated in step 103, based on the method for testing the tissue sample in step 104, and then the test in step 104 for testing the tissue samples from the specific part of the patient will continue.
(§1) Step 102: Performing a Quick Tzanck Test (QTT) process. The QTT process can be applied to the tissue samples from the patient's skin so as to reveal some histopathological changes from the QTT sample, i.e. the tissue samples from the patient's skin, by using a microscope. The inspector or the medical staff can observe the histopathological changes to diagnose HSV infection.
Step 106: Treating an anti-HSV treatment of, for example, prescribing an anti-HSV medicine or an anti-HSV cream for the patient. The patient may take the anti-HSV medicine to cure the HSV infection. Alternatively, the patient may apply the anti-HSV cream onto the affected part of the patient's skin.
(§2) 1. Adult: Valacyclovir (500 mg) • a. 2 tablets daily (i.e. 1 tablet after breakfast and dinner) for 5-7 days. • b. 3 tablets daily (i.e. every 8 hours) for severe cases in the beginning only.

viral thymidine kinase = viral thymidine kinase (Human herpesvirus 1, UniProt P0DTH5); settings: conversion into acyclo-guanosine monophosphate; cited from earlier work
viral thymidine kinase, sequence (P0DTH5 whole entry): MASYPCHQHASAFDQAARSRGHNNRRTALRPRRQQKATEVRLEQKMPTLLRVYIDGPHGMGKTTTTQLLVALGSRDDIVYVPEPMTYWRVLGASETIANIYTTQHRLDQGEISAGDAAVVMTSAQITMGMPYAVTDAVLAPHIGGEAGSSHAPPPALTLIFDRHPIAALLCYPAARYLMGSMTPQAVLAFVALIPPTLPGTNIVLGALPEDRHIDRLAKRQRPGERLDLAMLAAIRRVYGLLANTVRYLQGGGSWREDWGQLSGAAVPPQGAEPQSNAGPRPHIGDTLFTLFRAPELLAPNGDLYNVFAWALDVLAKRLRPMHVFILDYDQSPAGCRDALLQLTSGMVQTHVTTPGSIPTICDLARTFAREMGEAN

[2] = system: Herpes simplex virus (HSV); experiment: Clinical cases of diabetic skin complications (psoriasiform plaques induced by HSV infection); type: in vivo, human; settings: Acyclovir (400 mg) 3 tablets daily for 10 days then 2 tablets daily for 10 days + NBUVB + Gr. I and III topical CS; 7 days afterwards
From the text: (§3) Step 104: Performing an antibody testing or a PCR techniques on the tissue sample from the specific part of the patient. The antibody testing, such as the HSV IgG testing, the cytomegalovirus immunoglobulin G (CMV IgG) testing or the non-specific immunoglobulin E (IgE) testing is adapted to be performed on a peripheral blood, acting as the tissue sample, of the patient. The PCR testing is adapted to be performed on peripheral blood, skin, bone marrow, mucosa, saliva, cerebrospinal fluid, amniotic fluid, brain tissue, tears or skin secretions, acting as the tissue sample, of the patient. The antibody testing or PCR techniques may be referred to the description in the section of “Diagnosis of HSV Infection”. The normal titer for CMV IgG/HSV IgG is less than 2 and the normal titer for non-specific IgE is less than 170 IU/ml. When the tissue sample from peripheral blood of the patient has a titer for CMV IgG/HSV IgG greater than 2, the process of “anti-HSV treatments” in step 106 is then carried out. Otherwise, the step 108 of “other treatments” is carried out. Alternatively, when the result of detecting the tissue sample via the PCR techniques is positive, the process of “anti-HSV treatments” in step 106 is then carried out; when the result of detecting the tissue sample via the PCR techniques is negative, the step 108 of “other treatments” is carried out.
1. […]

[3] = system: Herpes simplex virus (HSV); experiment: Clinical cases of alopecia due to HSV infection; type: in vivo, human
[4] = system: recurrent erythema multiforme; settings: continuous acyclovir therapy; double-blind trial in 1995 (Tatnall); cited from earlier work
[5] = system: Herpes simplex virus (HSV); experiment: Clinical cases of chilblain induced by HSV infection; type: in vivo, human; settings: for clinical outcome, red swollen fingers with pain: 2nd case of chilblain
From the text: as §1, §3, §2

[6] = system: Herpes simplex virus (HSV); experiment: Clinical cases of impetigo induced by HSV infection; type: in vivo, human; settings: for clinical outcome, skin lesions: Acyclovir G. 10 mg/kg 4 times a day for 7 days + anti-allergic agents
Method: as §1, with “The” for “Step 102: Performing a Quick Tzanck Test (QTT) process. The”
as §2

[7] = system: Herpes simplex virus (HSV); experiment: Clinical cases of pyoderma gangrenosum induced by HSV infection; type: in vivo, human
[8] = system: Herpes simplex virus (HSV); experiment: Clinical cases of acne induced by HSV infection; type: in vivo, human; settings: for clinical outcome, symptoms: 7 days later
Method: as §1, §2
Consequently, the treatment in the present invention of acne may comprise a cream or an ointment mixed by an Anti-HSV agent to put on the affected part of the patient, wherein the Anti-HSV agent comprises Valacyclovir or Acyclovir. For example, the ADO ointment used in this invention contains acyclovir, lidocaine and diclofenac.

[9] = CASE 7, with anti-allergic agent and antibiotic ointment, 9 days later

viral polymerase, sequence (P04293 whole entry): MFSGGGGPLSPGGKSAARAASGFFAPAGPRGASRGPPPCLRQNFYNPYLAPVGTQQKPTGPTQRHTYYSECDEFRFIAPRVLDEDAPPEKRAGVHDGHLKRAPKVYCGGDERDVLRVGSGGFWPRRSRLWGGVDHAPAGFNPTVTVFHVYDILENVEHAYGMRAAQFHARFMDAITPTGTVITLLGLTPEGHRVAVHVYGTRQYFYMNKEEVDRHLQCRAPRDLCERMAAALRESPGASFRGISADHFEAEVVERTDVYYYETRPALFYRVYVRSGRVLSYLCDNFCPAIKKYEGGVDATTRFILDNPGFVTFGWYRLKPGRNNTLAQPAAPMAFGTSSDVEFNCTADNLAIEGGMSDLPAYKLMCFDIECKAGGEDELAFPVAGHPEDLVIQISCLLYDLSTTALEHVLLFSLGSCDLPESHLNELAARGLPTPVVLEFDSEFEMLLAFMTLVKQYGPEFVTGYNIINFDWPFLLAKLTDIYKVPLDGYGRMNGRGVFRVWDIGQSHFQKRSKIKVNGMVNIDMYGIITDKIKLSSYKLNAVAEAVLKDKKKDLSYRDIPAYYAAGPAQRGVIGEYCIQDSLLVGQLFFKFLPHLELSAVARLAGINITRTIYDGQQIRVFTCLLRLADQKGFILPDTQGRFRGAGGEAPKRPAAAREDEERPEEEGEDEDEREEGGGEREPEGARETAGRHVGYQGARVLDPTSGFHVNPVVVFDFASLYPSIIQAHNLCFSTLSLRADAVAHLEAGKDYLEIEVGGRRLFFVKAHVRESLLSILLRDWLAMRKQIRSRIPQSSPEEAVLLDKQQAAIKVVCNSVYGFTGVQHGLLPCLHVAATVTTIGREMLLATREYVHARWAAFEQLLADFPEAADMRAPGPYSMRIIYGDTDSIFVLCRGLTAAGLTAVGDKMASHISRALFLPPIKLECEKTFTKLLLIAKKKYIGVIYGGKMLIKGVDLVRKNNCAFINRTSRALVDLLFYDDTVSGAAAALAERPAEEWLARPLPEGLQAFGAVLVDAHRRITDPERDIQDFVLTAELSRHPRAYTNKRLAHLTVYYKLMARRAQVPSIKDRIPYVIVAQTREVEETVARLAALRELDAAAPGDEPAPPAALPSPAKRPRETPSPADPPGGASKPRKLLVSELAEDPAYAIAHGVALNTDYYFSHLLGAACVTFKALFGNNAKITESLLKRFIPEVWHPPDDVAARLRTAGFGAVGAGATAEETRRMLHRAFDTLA

Nc1nc2c(ncn2COCCOP(=O)(O)OP(=O)(O)OP(=O)(O)O)c(=O)[nH]1 [Acyclo-GTP, acyclo-guanosine triphosphate]
greater affinity for viral than cellular polymerase (viral polymerase): approximately 100 times

Nc1nc(O)c2ncn(COCCO)c2n1 [Acyclovir, 2-Amino-1,9-dihydro-9-((2-hydroxyethoxy)methyl)-6H-purin-6-one]
clinical outcome, vesiculopapules and plaques ([1]; CASE 6, QTT positive, 2 days later): nearly no vesiculopapules and plaques over their trunk and upper extremity
clinical outcome, earlier similar eruptions ([1]; Case 8, 5-7 days of acyclovir granules, 7 and 9 months ago): Completely disappearance of similar eruptions
effectiveness of viral thymidine kinase in phosphorylation versus cellular thymidine kinase (viral thymidine kinase): 3000 times
clinical outcome, psoriasiform plaques [2]: Some lesions disappeared and the scaling of the psoriasiform plaques decreased a lot
clinical outcome, vesicopapules and pustules on back ([3]; 1st case of alopecia and acne-like eruption, after the treatment): only a few vesicopapules and pustules on their back
hair regrowth ([3]; 1st case of alopecia, Acyclovir (400 mg) 3 tablets daily for 10 days and 2 tablets daily for 14 days + anti-allergic agent + Gr. III topical CS, 23 days later): Small white hairs appeared especially over central portion
suppression of recurrent erythema multiforme [4]: completely suppressed
clinical outcome, swelling, pain, erosion ([5]; 1st case of chilblain, Acyclovir 200 mg 3 tablets daily for 7 days, 7 days later): The swelling and pain decreased a lot. The erosion improved
clinical outcome, skin lesions ([6]; 1st case of impetigo, antibiotics, 9 days later): only some erythema on their mandible and some small red erosions over right cheek
clinical outcome, lesion ([6]; 2nd case of impetigo, Acyclovir G. 10 mg/kg 4 times a day for 7 days + antibiotics ointment, 3 days later): The lesion dried, desquamated and became flat
recurrence ([6]; 4th case of impetigo, about one year): no recurrence till now
clinical outcome, skin lesions ([6]; 5th case of impetigo, Gr. IV topical corticosteroids, antibiotic ointment, 5 days later): some small erosions around their month and some vesiculopapules over the erythematosus eyelids
recurrence ([6]; 5th case of impetigo, about 14 months): no recurrence till now

CC(C)C(N)C(=O)OCCOCn1cnc2c(=O)nc(N)[nH]c21 (centres unmarked) [Valacyclovir, 2-[(2-amino-6-oxo-6,9-dihydro-3H-purin-9-yl)methoxy]ethyl-2-amino-3-methylbutanoate]
clinical outcome, vesicles and swelling of forearm ([1]; CASE 5, 2 days after Valacyclovir granule): Most of the vesicles became crusts and the swelling of their forearm improved a lot
clinical outcome, anterior chest [1, 9]: only few vesiculopapules over their anterior chest
clinical outcome, lower abdomen [1, 9]: nearly no punched out erosions over their lower abdomen
recurrence ([1]; Case 9, follow-up after treatment): no recurrence for 2 years
clinical outcome, vesicles ([1]; Case 9, with anti-allergic agent, 3 days after treatment): the roofs of the vesicles detached and became crusted erosions
clinical outcome, skin lesion ([1]; Case 9, with anti-allergic agent, 7 days later): healed completely
hair regrowth ([3]; 1st case of alopecia, about 7 weeks after they finished Valacyclovir 2 tablets daily for 5 days): New hairs including black hairs increased a lot
clinical outcome, pustule ([3]; 2nd case of alopecia, Valacyclovir 1 tablets daily for 95 days + anti-allergic agent + Acyclovir ointment for 6 weeks, a week later): The pustule disappeared
clinical outcome, atrophic plague ([3]; 2nd case of alopecia, same regimen, 2 weeks later): nearly no change on the atrophic plague
hair regrowth ([3]; 2nd case of alopecia, same regimen, 4 weeks later): hair increased obviously on the right side and posterior aspect
hair regrowth ([3]; 2nd case of alopecia, same regimen, 16 weeks later): New black hairs (circle) were observed and no more alopecia on the right side
clinical outcome, red swollen fingers with pain ([5]; after 2nd prescriptions: Valacyclovir 1 tablets daily for 14 days + anti-allergic agent + ADO ointment 2 time daily): improved
clinical outcome, red swollen fingers with pain ([5]; after 3rd prescriptions: Valacyclovir 1 tablets daily for 14 days + anti-allergic agent + ADO ointment 2 time daily): nearly cured
clinical outcome, vesicles ([6]; 3rd case of impetigo, Valacyclovir 2 tablets daily + anti-allergic agent, 3 days after the treatment): the vesicles found over their left neck 6 days ago collapsed
clinical outcome, symptoms ([6]; 3rd case of impetigo, Valacyclovir 2 tablets daily for 7 days + anti-allergic agent + antibiotics 2 days, 7 days later): Symptoms have significantly improved
clinical outcome, erosions and oozing ([7]; 1st case of pyoderma gangrenosum, Valacyclovir 3 tablets daily for 10 days + anti-allergic agent, antibiotics ointment, Gr. III topical CS, 10 days later): no more erosions and oozing
clinical outcome, pustules and inflammation ([8]; 1st case of acne, Valacyclovir 2 tablets daily for 5 days + Nadifloxacin cream, 5 days later): The number of the pustules and the extent of inflammation decreased
clinical outcome, pustules ([8]; 2nd case of acne, Valacyclovir 2 tablets daily for 5 days + ADO ointment, 8 days later): Nearly no pustules were seen
clinical outcome, inflammation and comedoes ([8]; 3rd case of acne, Valacyclovir 2 tablets daily for 5 days per month + ADO ointment, 23 days later): The severe inflammation on the nose and over the left cheek decreased a lot
clinical outcome, pustules ([8]; 4th case of acne, Valacyclovir 2 tablets daily for 5 days + anti-allergic agent + Gr. IV topical CS, 2 days later): Not only the number but also the size of the pustules decreased a lot
recurrence ([8]; 4th case of acne, after completed medication, about one year): no recurrence till now
clinical outcome, symptoms ([8]; 5th case of acne, Valacyclovir 2 tablets daily for 5 days + antibiotics 2 days + Nadifloxacin cream): Symptoms have significantly improved
clinical outcome, symptoms ([8]; 6th case of acne, Valacyclovir 2 tablets daily for 5 days + Nadifloxacin cream + Gr. IV topical CS): Symptoms have significantly improved

C[C@]12C=CC(=O)C=C1CC[C@@H]1[C@@H]2[C@@H](O)C[C@@]2(C)[C@H]1CC[C@]2(O)C(=O)CO [prednisolone]
clinical outcome, symptoms ([7]; 2nd case of pyoderma gangrenosum with ulcerative colitis, oral prednisolone 40 mg tapered + gentamycin ointment + mesalazine, no antiviral, 13 days later): Symptoms have significantly improved

Reference: US9526729B2, “Medicament for treating peripheral neuropathies” (priority 2013, dated 2016)
